From publication PMC6422671 (British Journal of Clinical Pharmacology, 2019)

Test: Vital signs; data mean (standard deviation)
Format: in vivo, healthy men
From the text: Data are mean (standard deviation)

For `C[C@@H](N)c1cc(Cl)ccc1Cn1c(=S)[nH]c(=O)c2[nH]ccc21` [AZD4831], the DBP (45 mg fed, 0.5 h) was 66 (16) mmHg, the Pulse (45 mg fed, 0.5 h) was 63 (6) bpm and the SBP (45 mg fed, 0.5 h) was 121 (15) mmHg. The DBP (45 mg fed, 1 h) was 65 (11) mmHg, the Pulse (45 mg fed, 1 h) was 66 (11) bpm and the SBP (45 mg fed, 1 h) was 122 (16) mmHg. The DBP (45 mg fed, 2 h) was 66 (18) mmHg, the Pulse (45 mg fed, 2 h) was 64 (9) bpm and the SBP (45 mg fed, 2 h) was 120 (12) mmHg. For the same compound, the DBP (45 mg fed, 3 h) was 69 (11) mmHg, the Pulse (45 mg fed, 3 h) was 64 (9) bpm and the SBP (45 mg fed, 3 h) was 125 (13) mmHg. The DBP (45 mg fed, 4 h) was 67 (15) mmHg, the Pulse (45 mg fed, 4 h) was 62 (10) bpm and the SBP (45 mg fed, 4 h) was 123 (17) mmHg. For the same compound, the DBP (45 mg fed, 6 h) was 70 (15) mmHg, the Pulse (45 mg fed, 6 h) was 64 (8) bpm and the SBP (45 mg fed, 6 h) was 120 (7) mmHg. For the same compound, the DBP (45 mg fed, 8 h) was 71 (17) mmHg, the Pulse (45 mg fed, 8 h) was 59 (9) bpm and the SBP (45 mg fed, 8 h) was 121 (14) mmHg. The DBP (45 mg fed, 12 h) was 69 (15) mmHg, the Pulse (45 mg fed, 12 h) was 63 (10) bpm and the SBP (45 mg fed, 12 h) was 124 (8) mmHg. For the same compound, the DBP (45 mg fed, 24 h) was 69 (12) mmHg, the Pulse (45 mg fed, 24 h) was 57 (9) bpm and the SBP (45 mg fed, 24 h) was 114 (9) mmHg. For the same compound, the DBP (45 mg fed, 36 h) was 71 (15) mmHg, the Pulse (45 mg fed, 36 h) was 62 (9) bpm and the SBP (45 mg fed, 36 h) was 127 (9) mmHg. The DBP (45 mg fed, 48 h) was 73 (13) mmHg, the Pulse (45 mg fed, 48 h) was 57 (4) bpm and the SBP (45 mg fed, 48 h) was 116 (7) mmHg. The DBP (135 mg fasted, 0.5 h) was 69 (5) mmHg, the Pulse (135 mg fasted, 0.5 h) was 59 (6) bpm and the SBP (135 mg fasted, 0.5 h) was 113 (8) mmHg. For the same compound, the DBP (135 mg fasted, 1 h) was 70 (4) mmHg, the Pulse (135 mg fasted, 1 h) was 61 (9) bpm and the SBP (135 mg fasted, 1 h) was 110 (5) mmHg. The DBP (135 mg fasted, 2 h) was 68 (6) mmHg, the Pulse (135 mg fasted, 2 h) was 59 (7) bpm and the SBP (135 mg fasted, 2 h) was 113 (10) mmHg. For the same compound, the DBP (135 mg fasted, 3 h) was 68 (6) mmHg, the Pulse (135 mg fasted, 3 h) was 59 (6) bpm and the SBP (135 mg fasted, 3 h) was 113 (7) mmHg. For the same compound, the DBP (135 mg fasted, 4 h) was 69 (6) mmHg, the Pulse (135 mg fasted, 4 h) was 60 (7) bpm and the SBP (135 mg fasted, 4 h) was 116 (8) mmHg. For the same compound, the DBP (135 mg fasted, 6 h) was 66 (6) mmHg, the Pulse (135 mg fasted, 6 h) was 67 (8) bpm and the SBP (135 mg fasted, 6 h) was 113 (10) mmHg. For the same compound, the DBP (135 mg fasted, 8 h) was 70 (6) mmHg, the Pulse (135 mg fasted, 8 h) was 62 (4) bpm and the SBP (135 mg fasted, 8 h) was 113 (8) mmHg. For the same compound, the DBP (135 mg fasted, 12 h) was 69 (7) mmHg, the Pulse (135 mg fasted, 12 h) was 70 (5) bpm and the SBP (135 mg fasted, 12 h) was 119 (9) mmHg. The DBP (135 mg fasted, 24 h) was 69 (3) mmHg, the Pulse (135 mg fasted, 24 h) was 65 (9) bpm and the SBP (135 mg fasted, 24 h) was 115 (7) mmHg. The DBP (135 mg fasted, 36 h) was 67 (6) mmHg, the Pulse (135 mg fasted, 36 h) was 73 (7) bpm and the SBP (135 mg fasted, 36 h) was 118 (12) mmHg. For the same compound, the DBP (135 mg fasted, 48 h) was 71 (5) mmHg, the Pulse (135 mg fasted, 48 h) was 67 (9) bpm and the SBP (135 mg fasted, 48 h) was 114 (10) mmHg. The DBP (405 mg fasted, 0.5 h) was 70 (7) mmHg, the Pulse (405 mg fasted, 0.5 h) was 61 (8) bpm and the SBP (405 mg fasted, 0.5 h) was 116 (9) mmHg. The DBP (405 mg fasted, 1 h) was 69 (8) mmHg, the Pulse (405 mg fasted, 1 h) was 61 (8) bpm and the SBP (405 mg fasted, 1 h) was 114 (6) mmHg. The DBP (405 mg fasted, 2 h) was 68 (6) mmHg, the Pulse (405 mg fasted, 2 h) was 58 (8) bpm and the SBP (405 mg fasted, 2 h) was 114 (9) mmHg. For the same compound, the DBP (405 mg fasted, 3 h) was 67 (5) mmHg, the Pulse (405 mg fasted, 3 h) was 57 (6) bpm and the SBP (405 mg fasted, 3 h) was 112 (6) mmHg. For the same compound, the DBP (405 mg fasted, 4 h) was 69 (7) mmHg, the Pulse (405 mg fasted, 4 h) was 60 (8) bpm and the SBP (405 mg fasted, 4 h) was 115 (5) mmHg. For the same compound, the DBP (405 mg fasted, 6 h) was 66 (5) mmHg, the Pulse (405 mg fasted, 6 h) was 63 (8) bpm and the SBP (405 mg fasted, 6 h) was 113 (4) mmHg. The DBP (405 mg fasted, 8 h) was 67 (5) mmHg, the Pulse (405 mg fasted, 8 h) was 59 (7) bpm and the SBP (405 mg fasted, 8 h) was 113 (5) mmHg. For the same compound, the DBP (405 mg fasted, 12 h) was 67 (4) mmHg, the Pulse (405 mg fasted, 12 h) was 63 (8) bpm and the SBP (405 mg fasted, 12 h) was 114 (8) mmHg. For the same compound, the DBP (405 mg fasted, 24 h) was 71 (2) mmHg, the Pulse (405 mg fasted, 24 h) was 60 (7) bpm and the SBP (405 mg fasted, 24 h) was 113 (4) mmHg. For the same compound, the DBP (405 mg fasted, 36 h) was 68 (4) mmHg, the Pulse (405 mg fasted, 36 h) was 65 (5) bpm and the SBP (405 mg fasted, 36 h) was 118 (4) mmHg. The DBP (405 mg fasted, 48 h) was 71 (7) mmHg, the Pulse (405 mg fasted, 48 h) was 65 (9) bpm and the SBP (405 mg fasted, 48 h) was 118 (4) mmHg. For the same compound, the “changes in vital signs or electrocardiography parameters” value (in vivo) was “no clinically significant changes”.
